# Where two headings read alike, the source gives them in different places.
# How the values were obtained:
# [1] = system: NF-κB target genes (IL-8 and TNF); assay: Real-time PCR of NF-κB target genes (IL-8 and TNF) in HepG2 and Hep3B; assay type: cell-based; conditions: 2 h after exposure; basal and TNF-induced; both HCC cell lines
# [2] = system: Hep3B hepatocellular carcinoma tumors; assay: Hep3B (sub-dose CBL0137) study; assay type: in vivo, nude mice
# Text: (§1) Seventy and sixty female athymic nude mice were obtained for each H1975 Non-Small Cell Lung Cancer Xenograft study and split into treatment groups consisting of 10 animals per group (2 cages of 5 mice per cage).
# (§2) Preparation and subcutaneous implantation of tumor pieces: HepG2 tumors (passage 2 for HepG2 study and passage 1 for HepG2 (sub-dose CLB0137) study) or Hep3B tumors (passage 1 for Hep3B study and passage 9 for Hep3B (sub-dose CLB0137) study) were propagated in athymic nude mice and harvested from euthanized mice when they reached ˜500-900 mm^3. PDA tumors (passage 6) were propagated in SCID mice (both flanks) and harvested from euthanized mice when they reached ˜600-700 mm^3 in size. Harvested tumors were transferred to a sterile Petri dish containing RPMI-10% FBS medium or D-PBS plus penicillin/streptomycin. Enough media was added to bathe the tumor in order to ensure the viability of the transplant material. Tumors were dissected into 2 mm×2 mm cubes using a sterile scalpel. Care was taken to make the pieces as uniform in size and shape as possible. Tumor pieces were implanted into recipient mice immediately after being prepared.
# Tumor Size Measurements: Tumor size was measured by digital caliper in two dimensions (in mm): maximum length (l) and maximum width (w) taken perpendicular to one another. The measurements were used to calculate tumor volume according to the formula: tumor volume=(l×w2)/2 (w<l). The value obtained by this formula is also equal to the mass of the tumor in mg. […]
# (§3) Monitoring and Sample Collection: Twice daily, mice were monitored for mortality and morbidity for the duration of the experiment. […] All abnormal observations were documented and semi-quantitative scores were assigned for “body condition,” “posture,” and “activity.” Scores of 4, 3, 2, and 1 were assigned to normal conditions (4), and slightly (3), moderately (2) and severely (1) abnormal conditions, respectively. […]
# (§4) Data analysis: For all study groups, maximum tumor growth inhibition was calculated for Day 11, 13, or 15 (Day X). […] For each tumor, relative tumor size was calculated relative to its size on Day 1 when treatment was initiated (i.e., fold tumor growth). […] Differences in tumor sizes between groups were determined using ANOVA analysis (GraphPad Prism 5 Software) where “*” refers to P=0.01-0.05 (significant), “**” refers to P=0.001-0.01 (very significant) and “***” refers to P<0.001 (extremely significant), Differences that were not statistically significant are indicated with “ns”. […] Tumor growth delay (T−C) was calculated by subtracting the median time for the control to reach the 1000 mm^3 size endpoint from that of the median time for the treated groups to reach the size endpoint.
# [3] = system: Hep3B hepatocellular carcinoma tumors; assay type: in vivo, nude mice
# Text: as §1, §2
# (§5) Tumor Size Measurements: Tumor size was measured by digital caliper in two dimensions (in mm): maximum length (l) and maximum width (w) taken perpendicular to one another. The measurements were used to calculate tumor volume according to the formula: tumor volume=(l×w2)/2 (w<l). The value obtained by this formula is also equal to the mass of the tumor in mg. Starting 2 days after tumor implantation, tumor measurements were made every 2-3 days prior to treatment initiation and then twice per week (e.g., on Day 1 (D1, the day of treatment initiation), D4, D8, D11, D15, D18, D22, D25, D29, D32, D36, D39, D43, D46, D50, D53 and D57). Tumor measurements were collected more frequently when tumor size approached the tumor size endpoint in order to prevent passing the endpoint between scheduled measurements.
# (§6) Administration of test and control articles: Mice were administered the designated solutions when the mean tumor volume per treatment group was ˜45-200 mm^3.
# The volume of the dosing solution administered orally or intravenously was 8 ml/kg of body weight, Intravenous injections were performed via the tail vein. […]
# as §3, §4
# [4] = system: HepG2 hepatocellular carcinoma tumors; assay: HepG2 (sub-dose CBL0137) study; assay type: in vivo, nude mice
# Text: as §1, §2, §5, §6
# (§7) The volume of the dosing solution administered orally or intravenously was 8 ml/kg of body weight, Intravenous injections were performed via the tail vein. Administration of drugs was done slowly without force on the syringe.
# (§8) Monitoring and Sample Collection: Twice daily, mice were monitored for mortality and morbidity for the duration of the experiment. […] All abnormal observations were documented and semi-quantitative scores were assigned for “body condition,” “posture,” and “activity.” Scores of 4, 3, 2, and 1 were assigned to normal conditions (4), and slightly (3), moderately (2) and severely (1) abnormal conditions, respectively. Cages were taken to a laminar flow hood and opened in order to clearly assess mouse activity.
# Data analysis: For all study groups, maximum tumor growth inhibition was calculated for Day 11, 13, or 15 (Day X). […] For each tumor, relative tumor size was calculated relative to its size on Day 1 when treatment was initiated (i.e., fold tumor growth). To calculate the maximum tumor growth inhibition for each tumor, the following equation was used: 100−(fold tumor growth drug-treated Day X/mean fold tumor growth vehicle-treated Day X)*100. Differences in tumor sizes between groups were determined using ANOVA analysis (GraphPad Prism 5 Software) where “*” refers to P=0.01-0.05 (significant), “**” refers to P=0.001-0.01 (very significant) and “***” refers to P<0.001 (extremely significant), Differences that were not statistically significant are indicated with “ns”. […] Tumor growth delay (T−C) was calculated by subtracting the median time for the control to reach the 1000 mm^3 size endpoint from that of the median time for the treated groups to reach the size endpoint.
# [5] = system: HepG2 and Hep3B; conditions: HepG2 only (Hep3B is p53 null)
# Text: Specifically, the Western blots monitored expression of spt16, SSRP1, p53, p21, P-ERK, ERK, Mcl-1, and GAPDH (control). Panel A corresponds to the tumor-bearing nude mice from the HepG2 study whereas Panel B corresponds to the tumor-bearing nude mice from the Hep3B study.
# Specifically, the Western blots monitored the effect of drug treatment on expression of spt16, SSRP1, p53, p21, P-ERK, ERK, Mcl-1, and GAPDH (control) proteins, of which most are involved in cell cycle progression and regulation.
# [6] = system: HepG2 hepatocellular carcinoma tumors; assay: HepG2 study: CBL0137/sorafenib against HepG2 HCC tumor engrafts; assay type: in vivo, nude mice
# Text: as §1, §2, §5, §6, §7, §8
# Data analysis: For all study groups, maximum tumor growth inhibition was calculated for Day 11, 13, or 15 (Day X). […] For each tumor, relative tumor size was calculated relative to its size on Day 1 when treatment was initiated (i.e., fold tumor growth). To calculate the maximum tumor growth inhibition for each tumor, the following equation was used: 100−(fold tumor growth drug-treated Day X/mean fold tumor growth vehicle-treated Day X)*100. Differences in tumor sizes between groups were determined using ANOVA analysis (GraphPad Prism 5 Software) where “*” refers to P=0.01-0.05 (significant), “**” refers to P=0.001-0.01 (very significant) and “***” refers to P<0.001 (extremely significant), Differences that were not statistically significant are indicated with “ns”.
# [7] = median time to reach tumor size endpoint, treated minus control
structure (smiles),measurement,setting,value
CNC(=O)c1cc(Oc2ccc(NC(=O)Nc3ccc(Cl)c(C(F)(F)F)c3)cc2)ccn1 [sorafenib],expression of NF-κB target genes (IL-8 and TNF),[1],"have an effect on expression of NF-κB target genes, albeit less than CBL0137"
same,mean change in tumor volume versus Day 1,"[2]; Day 15, vehicle 21.0-fold",10.2 fold
same,tumor growth inhibition,[2]; between Days 1 and 15,51.4%
same,antitumor efficacy (in words),"[2]; dT, time to endpoint, growth delay, T/C %",stronger beneficial effect
same,median survival time (MST),"[2]; sorafenib 30 mg/kg po daily, CBL0137 50 mg/kg iv Q4d, 4 weeks, vehicle 14.5 days",21.5 days
same,tumor growth inhibition,[3]; Day 11,67.2%
same,T/C %,"[3]; Day 11, size relative to vehicle-treated tumors",33.4%
same,mean change in tumor volume versus Day 1,"[3]; Day 11, vehicle 9.08-fold",2.98 fold
same,antitumor efficacy (in words),[3]; Hep3B study summary,efficacious in suppressing growth of Hep3B engrafts
same,median survival time (MST),"[3]; sorafenib 30 mg/kg po daily, CBL0137 60 mg/kg iv Q4d, 4 weeks, vehicle 11 days",25 days
same,mean change in tumor volume versus Day 1,"[4]; Day 13, vehicle 13.2-fold",3.2 fold
same,antitumor efficacy (in words),[4]; HepG2 (sub-dose CBL0137) study summary,effectively suppressed HepG2 tumor growth
same,tumor growth inhibition,[4]; between Days 1 and 13,76%
same,median time to reach the tumor size endpoint,"[4]; by extrapolation from exponential growth curves, vehicle 12.6 days",29.6 days
same,Tumor growth delay (T−C),[4]; [7],17 days
same,median survival time (MST),"[4]; sorafenib 30 mg/kg po daily, CBL0137 60 mg/kg iv Q4d, 4 weeks, vehicle 13 days",27.5 days
same,induction of p53 and p21 by CBL0137 (Western blot),[5],blocked this induction
same,T/C %,"[6]; Day 15, sorafenib 15 mg/kg po daily, CBL0137 70 mg/kg iv Q4d",72.6%
same,mean change in tumor volume versus Day 1,"[6]; Day 15, sorafenib 15 mg/kg po daily, CBL0137 70 mg/kg iv Q4d, vehicle 9.0-fold",8.4 fold
same,antitumor efficacy (in words),[6]; HepG2 study summary,had no effect against HepG2 tumor growth
same,median survival time (MST),"[6]; HepG2 study, sorafenib 15 mg/kg po daily, CBL0137 70 mg/kg iv Q4d, 4 weeks, vehicle 15 days",15 days
same,Tumor growth delay (T−C),[6]; [7],5.65 days
same,tumors that grew showing some degree of regression during the course of treatment,"[6]; sorafenib 15 mg/kg po daily, CBL0137 70 mg/kg iv Q4d, vehicle 0/16",0/14
